Measurements published in PubChem BioAssay (NCI).
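Results reflect a 48-hour exposure of cells in 96-well plates to compound at five concentrations. The concentration for full growth arrest is given as TGI.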 Where a SMILES comes first, the peptide text is derived from it. The star is where a group is joined. Boc = CC(C)(C)OC(=O)*

Key:
Test in all cases: NCI tumour cell line growth inhibition, 48 h
TK-10 renal = test system: TK-10 renal
MCF7 breast = test system: MCF7 breast
NCI-H460 lung = test system: NCI-H460 lung
MOLT-4 leukemia = test system: MOLT-4 leukemia
LOX IMVI melanoma = test system: LOX IMVI melanoma
ACHN renal = test system: ACHN renal
COLO 205 colon = test system: COLO 205 colon
A549 NSCLC = test system: A549 NSCLC
SK-MEL-5 melanoma = test system: SK-MEL-5 melanoma
UO-31 renal = test system: UO-31 renal
PC-3 prostate = test system: PC-3 prostate
CAKI-1 renal = test system: CAKI-1 renal
SF-268 CNS = test system: SF-268 CNS
EKVX NSCLC = test system: EKVX NSCLC
T-47D breast = test system: T-47D breast
IGROV1 ovarian = test system: IGROV1 ovarian

| SMILES | TGI (TK-10 renal) [µM] | TGI (MCF7 breast) [µM] | TGI (NCI-H460 lung) [µM] | TGI (MOLT-4 leukemia) [µM] | TGI (LOX IMVI melanoma) [µM] | TGI (ACHN renal) [µM] | TGI (COLO 205 colon) [µM] | TGI (A549 NSCLC) [µM] | TGI (SK-MEL-5 melanoma) [µM] | TGI (UO-31 renal) [µM] | TGI (PC-3 prostate) [µM] | TGI (CAKI-1 renal) [µM] | TGI (SF-268 CNS) [µM] | TGI (EKVX NSCLC) [µM] | TGI (T-47D breast) [µM] | TGI (IGROV1 ovarian) [µM] |
| --- | --- | --- | --- | --- | --- | --- | --- | --- | --- | --- | --- | --- | --- | --- | --- | --- |
| Nc1cnc2c(c1)c(=O)nc1n2CCS1 | > 100 | > 100 | > 100 | > 100 | > 100 | > 100 | > 100 | > 100 | > 100 | > 100 | > 100 | > 100 | > 100 | > 100 | – | – |
| O=C(O)c1cc(N(Cc2ccccc2O)Cc2cc(O)ccc2O)ccc1O | > 100 | > 100 | > 100 | > 100 | > 100 | > 100 | > 100 | > 100 | > 100 | > 100 | > 100 | – | > 100 | > 100 | > 100 | > 100 |
| CCOC(=O)CCc1c(C)[nH]c2c(C)c3c([nH]c4ccc(Cl)cc43)c(C)c2c1=O | 37.2 | 37.7 | 6.11 | > 100 | 23.3 | 28.9 | 89 | 23.5 | > 100 | 40.6 | > 100 | 49.5 | 76.7 | 37.6 | 54.3 | 26.2 |
| Cc1cc(=O)oc2c(CNC(C(=O)O)C(C)O)c(O)ccc12 (stereo not given) | > 100 | > 100 | > 100 | > 100 | > 100 | > 100 | > 100 | > 100 | > 100 | > 100 | > 100 | > 100 | > 100 | > 100 | > 100 | > 100 |
| CCOC(=O)CCC(NC(=O)c1ccc(Oc2nc3ccccc3nc2C(=O)OCC)cc1)C(=O)OCC (stereo not given) | > 100 | > 100 | > 100 | > 100 | > 100 | > 100 | > 100 | > 100 | > 100 | > 100 | > 100 | > 100 | > 100 | > 100 | > 100 | > 100 |
| CN(CC#N)C(=O)Cc1ccc([N+](=O)[O-])cc1 | > 10 | > 10 | > 10 | > 10 | > 10 | > 10 | > 10 | > 10 | > 10 | > 10 | > 10 | > 10 | > 10 | > 10 | > 10 | > 10 |
| c1ccc2c3nnc(c2c1)SCCSCCCSCCS3 | > 100 | > 100 | > 100 | – | > 100 | > 100 | > 100 | > 100 | > 100 | > 100 | > 100 | > 100 | > 100 | > 100 | > 100 | > 100 |
| NC(=O)C(=CN1CC(=O)NC1=S)C(N)=O | > 100 | > 100 | > 100 | > 100 | > 100 | > 100 | > 100 | > 100 | > 100 | > 100 | – | > 100 | > 100 | > 100 | > 100 | > 100 |
| COc1nc2c(c(=O)n1C)NC(C(O)C(O)CO)C=N2 (stereo not given) | > 10 | > 10 | > 10 | > 10 | > 10 | > 10 | > 10 | > 10 | > 10 | > 10 | > 10 | > 10 | > 10 | > 10 | > 10 | > 10 |
| FC(F)(F)C1(C(F)(F)F)C2CCC3(CC(F)(F)C(F)(F)S3)C1C2 (stereo not given) | > 100 | 84.3 | > 100 | 46.4 | 47.4 | 98.5 | 76.3 | > 100 | > 100 | 68.3 | > 100 | > 100 | > 100 | 96.6 | > 100 | > 100 |
| Oc1[nH]c2ccccc2c1N=NC(=S)N1CCCC1 | 36.2 | > 56.6 | 9.42 | 5.75 | 18.3 | 4.55 | 27.5 | 13.6 | 8.5 | 11.3 | 57.8 | 10.8 | > 58.3 | > 65.3 | 85.1 | 15 |
| O=C(N/C(=C/c1ccc(Cl)cc1)c1nc2ccccc2c(=O)n1Nc1ccc([N+](=O)[O-])cc1[N+](=O)[O-])c1ccccc1 | > 100 | > 100 | > 100 | > 100 | > 100 | – | > 100 | > 100 | > 100 | > 100 | > 100 | > 100 | – | – | > 100 | > 100 |
| CC(C)(C)c1cc(C(C)(C)C)c2sc(=S)oc2c1O | 17.2 | 27.4 | 18.2 | > 40.8 | 17.7 | 20.8 | 29.6 | > 41.3 | 21.8 | 16.2 | 13.8 | 18.6 | 19.8 | 11.6 | 20.6 | 24.6 |
| CC(C)(C)OC(=O)N/N=C(/N)c1ccccc1 | > 100 | > 100 | > 100 | > 100 | > 100 | > 100 | > 100 | > 100 | > 100 | > 100 | > 100 | > 100 | > 100 | > 100 | > 100 | > 100 |
| N#CC(c1ccccc1)N(CCc1ccccc1)C(=O)Oc1ccccc1 (stereo not given) | > 100 | > 100 | – | > 100 | > 100 | > 100 | > 100 | > 100 | > 100 | > 100 | > 100 | > 100 | > 100 | > 100 | > 100 | > 100 |
| CCOC(=O)C(CC(C)C)NC(=O)C(Cc1ccccc1)NC(=O)CNC(=O)OC(C)(C)C (stereo not drawn) (Boc-Gly-Phe-Leu-OEt; configuration not given here) | 97.8 | 17.3 | 26.6 | 30.6 | 34.3 | 30.8 | – | 44.1 | 36.8 | > 100 | 35.7 | 23.2 | 43.3 | 54.1 | 61 | 49 |
| NCCc1ccc2c(c1)C(=O)c1c(O)ccc(O)c1C2=O | > 100 | > 100 | > 87.6 | > 100 | > 100 | > 53.6 | > 100 | > 45.4 | 3.94 | 25.7 | 26.1 | > 84.3 | 25.3 | 6.73 | – | > 100 |
| CN(NC(=O)c1cccs1)C1=NCCN1 | > 100 | > 100 | > 100 | > 100 | > 100 | > 100 | > 100 | > 100 | > 100 | > 100 | > 100 | – | > 100 | > 100 | > 100 | > 100 |
| COC(=O)/C(=C\C(=O)c1ccc(Br)cc1)NN=C(c1ccccc1)c1ccccc1 | > 10 | > 10 | – | > 10 | > 10 | – | > 10 | > 10 | > 10 | – | > 10 | > 10 | > 10 | > 10 | > 10 | > 10 |
| COc1cccc(-c2cc(=O)c3cccnc3[nH]2)c1 | > 100 | > 100 | – | > 100 | > 100 | > 100 | – | > 42.7 | 13.1 | > 100 | > 100 | > 100 | > 100 | > 100 | > 100 | > 100 |
| O=c1cc(-c2ccccc2Cl)[nH]c2cc3c(cc12)OCO3 | > 44.7 | > 100 | 5.24 | 2.33 | 11.9 | > 73.9 | 0.195 | > 16.7 | 2.03 | > 20 | > 100 | 39.9 | > 58.9 | – | > 100 | > 37.5 |
| CCCCCCCCCC(=O)CC(=O)c1c(O)cc(O)cc1O | > 75 | > 75 | – | 32.1 | 35.4 | > 75 | > 75 | > 75 | 28.6 | 31.7 | 41.8 | > 75 | 49.5 | > 75 | > 75 | > 75 |
| COc1ccc2[nH]c3c(C)c4cnccc4c(C)c3c2c1 | > 10 | 3.9 | 3.58 | > 10 | – | > 10 | 4.44 | 3.65 | > 10 | – | > 10 | > 10 | > 10 | > 10 | > 10 | > 10 |
| Cc1cc(Br)cc(C)c1NC(=O)C(=O)C1C(=O)C(CC2C(=O)c3ccccc3C2=O)C(=O)CC1(C)C (stereo not given) | > 100 | > 100 | > 100 | 74.5 | > 100 | > 100 | > 100 | > 100 | > 100 | 92.7 | > 100 | > 100 | > 100 | > 100 | – | > 100 |
| CC1C(=O)C23OC[C@@]1(C)C1(O)CC[C@@H](C)[C@]21CC3=O (stereo not given in full) | > 100 | > 100 | > 100 | > 100 | > 100 | > 100 | > 100 | > 100 | > 100 | > 100 | > 100 | – | > 100 | > 100 | > 100 | > 100 |
| CC1CC(NN(C)C)C2(C(N)=O)C(N)=NC(=O)C12C#N (stereo not given) | > 100 | > 100 | – | > 100 | > 100 | > 100 | > 100 | > 100 | > 100 | > 100 | > 100 | > 100 | > 100 | > 100 | > 100 | > 100 |
| CC1(C)O[C@@H](CP(c2ccccc2)c2ccccc2)[C@H](CP(c2ccccc2)c2ccccc2)O1 | 87 | – | > 100 | > 100 | 17.4 | > 100 | 12.4 | 85.7 | 19.4 | – | – | > 100 | 25.3 | 29.4 | 29.8 | 16.5 |
| CCOC(=O)c1c(N2CCOCC2)[nH]c(=O)c(C(c2ccc(Cl)c([N+](=O)[O-])c2)c2c(O)c(C(=O)OCC)c(N3CCOCC3)[nH]c2=O)c1O | > 100 | 69.6 | > 100 | 57.8 | 48.1 | > 100 | > 100 | > 100 | 74.5 | 95.5 | 50.1 | > 100 | > 100 | > 100 | 48.8 | – |
| O=C1CSC(/C=C/c2ccccc2)N1c1ccc(-n2c(-c3ccccc3)nc3ccccc3c2=O)cc1 (stereo not given) | > 100 | > 100 | > 100 | > 100 | > 100 | – | > 100 | > 100 | > 100 | > 100 | > 100 | > 100 | > 100 | > 100 | > 100 | > 100 |
| Cc1cc(=O)[nH]c2c3c(ccc12)OC(C)(C)C=C3 | > 100 | > 100 | > 100 | > 100 | – | > 100 | 12.2 | > 100 | > 100 | > 100 | > 100 | > 100 | > 100 | > 63.7 | > 100 | > 100 |
